# Source: ChEMBL document CHEMBL5678816, “A Next-Generation TRK Kinase Inhibitor Overcomes Acquired Resistance to Prior TRK Kinase Inhibition in Patients with TRK Fusion-Positive Solid Tumors” (Cancer Discov, 2017)
# Active and inactive are the calls of the source. The rule behind the calls is not given here.
# What was measured:
# [1] = Oral bioavailability in dog at 10 mg/kg administered as 0.5% carboxymethylcellulose 0.02% sodium dodecyl sulfate formulation by LC-MS analysis; format: ADME, organism-based, Canis lupus familiaris; conditions: in vivo
# [2] = Toxicity in nu/nu NCr mouse implanted with mouse NIH3T3 cells harboring extracellular domain deleted TRKA assessed as body weight loss at 30 to 300 mg/kg, po administered twice daily for 10 days relative to control; format: organism-based; conditions: in vivo, 240 h, dose 30-300 mg/kg, time 10 day
# CML-T1 = test: Inhibition of cell proliferation in human CML-T1 cells upto 10 umol/L incubated for 72 hrs by DAPI staining based analysis; format: functional; conditions: dose <= 10.0 µmol/L
# LC2 = test: Inhibition of cell proliferation in human LC2 cells upto 10 umol/L incubated for 72 hrs by DAPI staining based analysis; format: functional; conditions: dose <= 10.0 µmol/L
# MDA-MB-468 = test: Inhibition of cell proliferation in human MDA-MB-468 cells upto 10 umol/L incubated for 72 hrs by DAPI staining based analysis; format: functional; conditions: dose <= 10.0 µmol/L
# FaDu = test: Inhibition of cell proliferation in human FaDu cells upto 10 umol/L incubated for 72 hrs by DAPI staining based analysis; format: functional; conditions: dose <= 10.0 µmol/L
# J82 = test: Inhibition of cell proliferation in human J82 cells upto 10 umol/L incubated for 72 hrs by DAPI staining based analysis; format: functional; conditions: dose <= 10.0 µmol/L
# [3] = target: Proto-oncogene tyrosine-protein kinase ROS (Homo sapiens) (UniProt P08922); test: Inhibition of Ros (unknown origin) at 1 uM in presence of ATP relative to control
# [4] = target: Tyrosine-protein kinase Fgr (Homo sapiens) (UniProt P09769); test: Inhibition of Fgr (unknown origin) at 1 uM in presence of ATP relative to control; values are per cent of control
# [5] = target: Insulin receptor-related protein (Homo sapiens) (UniProt P14616); test: Inhibition of IRR (unknown origin) at 1 uM in presence of ATP relative to control; values are per cent of control
# Chain of Insulin receptor-related protein (Homo sapiens) (P14616 27-742 limits assumed): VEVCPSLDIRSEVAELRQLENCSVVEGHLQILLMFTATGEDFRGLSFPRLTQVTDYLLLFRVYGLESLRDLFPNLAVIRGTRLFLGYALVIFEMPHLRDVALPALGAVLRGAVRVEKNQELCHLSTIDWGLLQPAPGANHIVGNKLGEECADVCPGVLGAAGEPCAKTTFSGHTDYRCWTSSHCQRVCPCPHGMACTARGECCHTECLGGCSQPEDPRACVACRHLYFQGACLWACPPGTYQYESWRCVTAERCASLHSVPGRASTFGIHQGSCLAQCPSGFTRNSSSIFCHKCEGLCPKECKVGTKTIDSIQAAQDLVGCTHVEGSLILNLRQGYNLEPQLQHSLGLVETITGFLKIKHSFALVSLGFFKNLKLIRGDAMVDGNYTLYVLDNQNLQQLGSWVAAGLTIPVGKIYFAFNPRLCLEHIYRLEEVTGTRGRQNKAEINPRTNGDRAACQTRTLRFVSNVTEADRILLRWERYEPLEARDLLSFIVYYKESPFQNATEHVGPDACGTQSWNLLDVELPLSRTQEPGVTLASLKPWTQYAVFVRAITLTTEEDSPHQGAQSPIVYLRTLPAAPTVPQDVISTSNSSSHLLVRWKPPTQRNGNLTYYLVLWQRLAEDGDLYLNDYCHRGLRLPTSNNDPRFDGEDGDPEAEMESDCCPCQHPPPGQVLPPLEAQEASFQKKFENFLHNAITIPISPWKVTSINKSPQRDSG
# Chain of Insulin receptor-related protein (Homo sapiens) (P14616 747-1297 limits assumed): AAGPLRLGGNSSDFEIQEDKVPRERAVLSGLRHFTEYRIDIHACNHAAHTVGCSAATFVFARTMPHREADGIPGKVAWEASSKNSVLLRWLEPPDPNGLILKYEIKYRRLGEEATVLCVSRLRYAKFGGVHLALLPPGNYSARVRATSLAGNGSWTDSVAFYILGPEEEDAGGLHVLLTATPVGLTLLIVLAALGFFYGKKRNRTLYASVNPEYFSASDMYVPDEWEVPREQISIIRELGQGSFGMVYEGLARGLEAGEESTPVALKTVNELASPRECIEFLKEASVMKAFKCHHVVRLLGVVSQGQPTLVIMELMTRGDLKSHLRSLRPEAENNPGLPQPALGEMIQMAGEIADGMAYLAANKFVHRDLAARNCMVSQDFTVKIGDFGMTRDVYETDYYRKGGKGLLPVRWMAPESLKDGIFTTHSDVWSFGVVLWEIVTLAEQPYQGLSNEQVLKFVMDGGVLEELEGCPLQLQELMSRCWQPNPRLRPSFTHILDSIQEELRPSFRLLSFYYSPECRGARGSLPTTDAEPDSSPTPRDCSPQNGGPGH
# [6] = target: Myotonin-protein kinase (Homo sapiens) (UniProt Q09013); test: Inhibition of DMPK (unknown origin) at 1 uM in presence of ATP relative to control; values are per cent of control
# [7] = target: Ribosomal protein S6 kinase alpha-2 (Homo sapiens) (UniProt Q15349); test: Inhibition of Rsk3 (unknown origin) at 1 uM in presence of ATP relative to control; values are per cent of control
# [8] = target: Serine/threonine-protein kinase Chk2 (Homo sapiens) (UniProt O96017); test: Inhibition of CHK2 (unknown origin) at 1 uM in presence of ATP relative to control; values are per cent of control
# Chain of Serine/threonine-protein kinase Chk2 (Homo sapiens) (O96017 whole entry): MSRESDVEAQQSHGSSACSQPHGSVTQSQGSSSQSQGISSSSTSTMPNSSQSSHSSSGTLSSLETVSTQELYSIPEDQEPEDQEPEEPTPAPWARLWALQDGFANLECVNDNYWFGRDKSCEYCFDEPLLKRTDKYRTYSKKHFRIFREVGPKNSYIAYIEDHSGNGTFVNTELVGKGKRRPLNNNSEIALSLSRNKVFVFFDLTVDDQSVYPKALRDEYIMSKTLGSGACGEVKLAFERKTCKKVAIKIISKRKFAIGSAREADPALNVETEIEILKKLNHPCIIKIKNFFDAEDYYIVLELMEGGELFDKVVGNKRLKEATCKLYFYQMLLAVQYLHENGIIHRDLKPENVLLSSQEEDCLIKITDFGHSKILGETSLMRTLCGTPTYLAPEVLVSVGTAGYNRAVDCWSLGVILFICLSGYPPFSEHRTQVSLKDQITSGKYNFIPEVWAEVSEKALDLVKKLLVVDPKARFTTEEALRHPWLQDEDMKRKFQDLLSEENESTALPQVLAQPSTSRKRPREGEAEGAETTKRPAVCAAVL
# [9] = target: Serine/threonine-protein kinase PLK1 (Homo sapiens) (UniProt P53350); test: Inhibition of Plk1 (unknown origin) at 1 uM in presence of ATP relative to control; values are per cent of control
# [10] = target: Serine/threonine-protein kinase PAK 5 (Homo sapiens) (UniProt Q9P286); test: Inhibition of PAK5 (unknown origin) at 1 uM in presence of ATP relative to control; values are per cent of control
# Chain of Serine/threonine-protein kinase PAK 5 (Homo sapiens) (Q9P286 whole entry, looked up): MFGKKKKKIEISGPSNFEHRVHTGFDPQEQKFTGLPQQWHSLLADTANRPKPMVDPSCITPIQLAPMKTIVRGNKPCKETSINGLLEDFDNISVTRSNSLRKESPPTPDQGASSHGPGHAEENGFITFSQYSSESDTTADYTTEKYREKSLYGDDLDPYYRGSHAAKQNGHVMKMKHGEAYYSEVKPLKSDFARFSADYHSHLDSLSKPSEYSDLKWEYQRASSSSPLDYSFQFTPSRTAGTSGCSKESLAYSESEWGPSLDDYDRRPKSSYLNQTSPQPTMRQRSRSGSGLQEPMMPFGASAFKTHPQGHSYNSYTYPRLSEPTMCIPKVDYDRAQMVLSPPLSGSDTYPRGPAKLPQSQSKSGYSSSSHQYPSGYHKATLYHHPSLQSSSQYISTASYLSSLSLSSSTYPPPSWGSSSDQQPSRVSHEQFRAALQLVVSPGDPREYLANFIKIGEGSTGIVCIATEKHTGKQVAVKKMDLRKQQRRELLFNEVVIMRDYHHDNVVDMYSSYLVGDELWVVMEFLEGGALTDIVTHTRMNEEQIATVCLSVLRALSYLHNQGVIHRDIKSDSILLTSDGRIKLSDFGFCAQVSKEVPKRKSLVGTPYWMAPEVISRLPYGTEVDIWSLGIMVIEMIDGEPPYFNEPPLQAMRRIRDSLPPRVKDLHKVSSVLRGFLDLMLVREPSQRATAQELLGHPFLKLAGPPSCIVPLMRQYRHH
# [11] = target: Serine/threonine-protein kinase PAK 6 (Homo sapiens) (UniProt Q9NQU5); test: Inhibition of PAK6 (unknown origin) at 1 uM in presence of ATP relative to control; values are per cent of control
# Chain of Serine/threonine-protein kinase PAK 6 (Homo sapiens) (Q9NQU5 whole entry, looked up): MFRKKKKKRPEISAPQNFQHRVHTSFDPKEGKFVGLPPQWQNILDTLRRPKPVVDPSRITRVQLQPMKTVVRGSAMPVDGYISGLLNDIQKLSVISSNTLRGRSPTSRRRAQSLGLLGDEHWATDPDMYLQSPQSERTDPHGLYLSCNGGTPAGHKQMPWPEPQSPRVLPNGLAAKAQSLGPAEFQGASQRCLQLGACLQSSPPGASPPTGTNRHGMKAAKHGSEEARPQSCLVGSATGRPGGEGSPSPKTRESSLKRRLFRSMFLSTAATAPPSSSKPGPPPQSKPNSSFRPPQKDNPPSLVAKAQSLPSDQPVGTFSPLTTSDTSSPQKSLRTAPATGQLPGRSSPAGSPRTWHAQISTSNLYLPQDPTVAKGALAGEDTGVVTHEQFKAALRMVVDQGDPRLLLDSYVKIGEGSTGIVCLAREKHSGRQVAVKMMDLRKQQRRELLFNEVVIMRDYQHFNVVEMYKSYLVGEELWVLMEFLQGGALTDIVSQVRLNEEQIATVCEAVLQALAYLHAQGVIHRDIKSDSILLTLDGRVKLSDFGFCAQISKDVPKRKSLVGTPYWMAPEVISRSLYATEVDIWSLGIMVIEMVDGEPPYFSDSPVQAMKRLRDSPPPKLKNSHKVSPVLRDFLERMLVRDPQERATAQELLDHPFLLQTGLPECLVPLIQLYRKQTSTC
# [12] = target: Serine/threonine-protein kinase 33 (Homo sapiens) (UniProt Q9BYT3); test: Inhibition of STK33 (unknown origin) at 1 uM in presence of ATP relative to control; values are per cent of control
# [13] = target: Serine/threonine-protein kinase Nek11 (Homo sapiens) (UniProt Q8NG66); test: Inhibition of NEK11 (unknown origin) at 1 uM in presence of ATP relative to control; values are per cent of control
# [14] = target: Ephrin type-A receptor 8 (Homo sapiens) (UniProt P29322); test: Inhibition of EphA8 (unknown origin) at 1 uM in presence of ATP relative to control; values are per cent of control
# [15] = target: Ephrin type-B receptor 1 (Homo sapiens) (UniProt P54762); test: Inhibition of EphB1 (unknown origin) at 1 uM in presence of ATP relative to control; values are per cent of control
# [16] = target: Ephrin type-B receptor 4 (Homo sapiens) (UniProt P54760); test: Inhibition of EphB4 (unknown origin) at 1 uM in presence of ATP relative to control; values are per cent of control
# Chain of Ephrin type-B receptor 4 (Homo sapiens) (P54760 whole entry): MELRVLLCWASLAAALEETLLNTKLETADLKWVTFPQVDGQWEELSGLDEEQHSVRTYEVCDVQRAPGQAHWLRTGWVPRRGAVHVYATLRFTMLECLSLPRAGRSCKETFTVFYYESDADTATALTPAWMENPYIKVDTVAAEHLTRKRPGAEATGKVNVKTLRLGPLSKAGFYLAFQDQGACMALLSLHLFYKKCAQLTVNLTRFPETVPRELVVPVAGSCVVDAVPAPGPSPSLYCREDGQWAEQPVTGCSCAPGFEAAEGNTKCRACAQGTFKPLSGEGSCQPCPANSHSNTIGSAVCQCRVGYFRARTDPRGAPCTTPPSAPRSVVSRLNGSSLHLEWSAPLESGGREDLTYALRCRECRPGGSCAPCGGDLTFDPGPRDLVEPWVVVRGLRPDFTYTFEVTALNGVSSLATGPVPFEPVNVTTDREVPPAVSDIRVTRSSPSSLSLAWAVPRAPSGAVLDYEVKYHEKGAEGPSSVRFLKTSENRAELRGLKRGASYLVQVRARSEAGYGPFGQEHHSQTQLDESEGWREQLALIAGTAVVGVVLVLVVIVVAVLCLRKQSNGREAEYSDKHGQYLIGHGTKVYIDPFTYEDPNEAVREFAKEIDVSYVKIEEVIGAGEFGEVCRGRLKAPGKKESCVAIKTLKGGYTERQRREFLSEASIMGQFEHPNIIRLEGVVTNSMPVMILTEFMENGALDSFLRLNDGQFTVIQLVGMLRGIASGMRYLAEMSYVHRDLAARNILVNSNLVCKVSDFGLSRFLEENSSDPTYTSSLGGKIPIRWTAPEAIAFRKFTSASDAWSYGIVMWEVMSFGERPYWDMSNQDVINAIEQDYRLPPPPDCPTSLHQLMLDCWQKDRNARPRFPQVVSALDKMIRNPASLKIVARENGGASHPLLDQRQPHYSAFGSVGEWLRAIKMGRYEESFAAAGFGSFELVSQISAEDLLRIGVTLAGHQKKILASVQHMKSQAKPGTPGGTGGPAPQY
# [17] = target: Fibroblast growth factor receptor 4 (Homo sapiens) (UniProt P22455); test: Inhibition of FGFR4 (unknown origin) at 1 uM in presence of ATP relative to control; values are per cent of control
# Homo sapiens = species: Homo sapiens; test: Inhibition of p70S6K (unknown origin) at 1 uM in presence of ATP relative to control; values are per cent of control
# [18] = target: Calcium/calmodulin-dependent protein kinase type II subunit gamma (Homo sapiens) (UniProt Q13555); test: Inhibition of CAMK2g (unknown origin) at 1 uM in presence of ATP relative to control; values are per cent of control
# [19] = target: Mitogen-activated protein kinase kinase kinase kinase 2 (Homo sapiens) (UniProt Q12851); test: Inhibition of MAP4K2 (unknown origin) at 1 uM in presence of ATP relative to control; values are per cent of control
# Chain of Mitogen-activated protein kinase kinase kinase kinase 2 (Homo sapiens) (Q12851 whole entry): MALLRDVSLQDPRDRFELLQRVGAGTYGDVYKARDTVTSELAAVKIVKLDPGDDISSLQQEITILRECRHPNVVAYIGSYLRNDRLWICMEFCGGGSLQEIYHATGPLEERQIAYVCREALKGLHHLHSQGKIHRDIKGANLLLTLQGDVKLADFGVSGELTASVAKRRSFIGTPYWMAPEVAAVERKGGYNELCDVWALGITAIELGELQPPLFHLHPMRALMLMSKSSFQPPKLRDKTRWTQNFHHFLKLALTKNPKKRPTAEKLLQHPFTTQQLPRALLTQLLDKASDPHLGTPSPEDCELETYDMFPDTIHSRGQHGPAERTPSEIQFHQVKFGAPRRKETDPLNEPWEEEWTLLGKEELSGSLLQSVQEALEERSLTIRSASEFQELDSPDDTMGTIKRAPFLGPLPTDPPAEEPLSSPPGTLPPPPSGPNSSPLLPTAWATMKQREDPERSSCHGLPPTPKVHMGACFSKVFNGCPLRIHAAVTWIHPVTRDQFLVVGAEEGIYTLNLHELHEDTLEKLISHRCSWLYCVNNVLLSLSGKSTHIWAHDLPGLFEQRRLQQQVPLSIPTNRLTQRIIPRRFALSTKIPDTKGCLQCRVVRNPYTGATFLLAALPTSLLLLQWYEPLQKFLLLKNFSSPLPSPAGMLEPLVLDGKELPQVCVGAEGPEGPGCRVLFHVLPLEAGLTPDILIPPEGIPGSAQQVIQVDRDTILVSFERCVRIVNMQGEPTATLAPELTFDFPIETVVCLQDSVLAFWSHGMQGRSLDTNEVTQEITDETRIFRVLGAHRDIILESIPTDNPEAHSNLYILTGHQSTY
# [20] = target: Protein kinase C beta type (Homo sapiens) (UniProt P05771); test: Inhibition of PKCbetal (unknown origin) at 1 uM in presence of ATP relative to control; values are per cent of control
# [21] = target: MAP kinase-activated protein kinase 2 (Homo sapiens) (UniProt P49137); test: Inhibition of MAPKAP-K2 (unknown origin) at 1 uM in presence of ATP relative to control; values are per cent of control
# [22] = target: Mitogen-activated protein kinase 9 (Homo sapiens) (UniProt P45984); test: Inhibition of JNK2alpha2 (unknown origin) at 1 uM in presence of ATP relative to control; values are per cent of control
# [23] = target: Insulin receptor (Homo sapiens) (UniProt P06213); test: Inhibition of Activated IR (unknown origin) at 1 uM in presence of ATP relative to control; values are per cent of control
smiles,measurement,setting,value
C[C@@H]1CCc2ncc(F)cc2[C@H]2CCCN2c2ccn3ncc(c3n2)C(=O)N1 [SELITRECTINIB],bioavailability,[1],42%
same,Activity,[2],< 5%
same,inhibition,CML-T1,inactive
same,inhibition,LC2,inactive
same,inhibition,MDA-MB-468,inactive
same,inhibition,FaDu,inactive
same,inhibition,J82,inactive
same,inhibition,[3],12%
same,residual activity,[4],96%
same,residual activity,[5],111%
same,residual activity,[6],106%
same,residual activity,[7],106%
same,residual activity,[8],99.5%
same,residual activity,[9],104%
same,residual activity,[10],104%
same,residual activity,[11],99%
same,residual activity,[12],106%
same,residual activity,[13],112%
same,residual activity,[14],81.5%
same,residual activity,[15],112%
same,residual activity,[16],116%
same,residual activity,[17],128%
same,residual activity,Homo sapiens,117%
same,residual activity,[18],95%
same,residual activity,[19],102%
same,residual activity,[20],108%
same,residual activity,[21],102%
same,residual activity,[22],100%
same,residual activity,[23],97%
